# Values of other authors in patent US9862652B2, “Microencapsulated nitrification inhibitor composition” (DOW AGROSCIENCES LLC, priority 2014, dated 2018).
structure (smiles),measurement,setting,value
"Clc1cccc(C(Cl)(Cl)Cl)n1 [nitrapyrin, 2-chloro-6-(trichloromethyl)pyridine]",nitrapyrin dissolved by Hallcomid M-8-10,ambient temperature,about 50 weight percent
same,nitrapyrin dissolved by Aromatic 100,ambient temperature (24° C.),about 51 weight percent
same,nitrapyrin dissolved by cyclohexanone,ambient temperature (24° C.),about 60 wt %
same,nitrapyrin dissolved by Aromatic 150,−10° C.,about 29 weight percent
